Log 1/C data for twelve substances are collected here from ChEMBL document CHEMBL1121592, “Mutagenicity of substituted (o-phenylenediamine)platinum dichloride in the Ames test. A quantitative structure-activity analysis” (J Med Chem, 1980).

For this assay, the system named is Salmonella typhimurium. The assay can be described thus: Compound was tested in Ames test using Salmonella Typhimurium (TA-92). C is the molar concentration of compound producing 30 mutations/(10e 8) bacteria delivered. Type of assay: functional, organism-based. Particulars: Salmonella enterica subsp. enterica serovar Typhimurium.
On to “0-Hexyl-1,3-diamine-platinum 2,2-dichloride”, for which the Log 1/C was 4.22.

“0-Phenylene-1,3-diamine-platinum 2,2-dichloride-3,4,5-trichloro” yielded a Log 1/C of 7.73.

“0-Phenylene-1,3-diamine-platinum 2,2-dichloride-4,5-dichloro”: the Log 1/C came to 6.89.

Consider “0-Phenylene-1,3-diamine-platinum 2,2-dichloride-4-benzoyl”, for which the Log 1/C was 7.52.

For “0-Phenylene-1,3-diamine-platinum 2,2-dichloride-4-carboxylic acid methyl ester”, the Log 1/C was determined as 7.

With “0-Phenylene-1,3-diamine-platinum 2,2-dichloride-4-ethoxy”, the Log 1/C stood at 5.6.

The substance “0-Phenylene-1,3-diamine-platinum 2,2-dichloride-4-methoxy” displayed a Log 1/C of 5.65.

For “0-Phenylene-1,3-diamine-platinum 2,2-dichloride-4-methyl”, the Log 1/C stood at 5.6.

Take “0-Phenylene-1,3-diamine-platinum 2,2-dichloride-4-nitro”: the Log 1/C amounted to 8.65.

As for “4,5-benzoPhenylene-1,3-diamine-platinum 2,2-dichloride-”, the Log 1/C came out at 5.92.

CISPLATIN displayed a Log 1/C of 4.52.

Turning to “Phenylene-1,3-diamine-platinum 2,2-dichloride-4,5-dimethoxy”, the Log 1/C came to 4.64.
